From ChEMBL document CHEMBL1201862, “PubChem BioAssay data set” (2004)
Several values for one entry are separate records, joined by “and”; a condition that tells them apart may be missing. Equal values may be shown once. Activity calls are given as the source filed them.

Columns and labels:
[1] = molecular target: E3 ubiquitin-protein ligase Mdm2/Protein Mdm4 (Homo sapiens, UniProt O15151+Q00987); assay: Mdm2-MdmX interaction inhibitors, dose response, luminescence detection (AID 504593); assay type: functional
E3 ubiquitin-protein ligase Mdm2/Protein Mdm4, sequence (Q00987 whole entry): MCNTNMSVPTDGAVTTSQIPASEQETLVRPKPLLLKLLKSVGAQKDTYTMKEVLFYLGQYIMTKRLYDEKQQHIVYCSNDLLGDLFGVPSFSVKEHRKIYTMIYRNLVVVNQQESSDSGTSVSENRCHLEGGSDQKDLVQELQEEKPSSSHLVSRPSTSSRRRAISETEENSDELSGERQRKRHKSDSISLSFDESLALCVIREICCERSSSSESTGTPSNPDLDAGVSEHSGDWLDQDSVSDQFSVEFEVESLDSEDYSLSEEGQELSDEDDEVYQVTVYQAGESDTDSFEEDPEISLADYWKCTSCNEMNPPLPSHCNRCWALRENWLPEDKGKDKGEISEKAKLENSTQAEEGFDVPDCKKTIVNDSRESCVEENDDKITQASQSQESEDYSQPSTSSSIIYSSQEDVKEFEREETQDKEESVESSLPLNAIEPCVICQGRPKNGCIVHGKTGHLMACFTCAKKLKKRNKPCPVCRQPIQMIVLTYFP
E3 ubiquitin-protein ligase Mdm2/Protein Mdm4, sequence (O15151 whole entry): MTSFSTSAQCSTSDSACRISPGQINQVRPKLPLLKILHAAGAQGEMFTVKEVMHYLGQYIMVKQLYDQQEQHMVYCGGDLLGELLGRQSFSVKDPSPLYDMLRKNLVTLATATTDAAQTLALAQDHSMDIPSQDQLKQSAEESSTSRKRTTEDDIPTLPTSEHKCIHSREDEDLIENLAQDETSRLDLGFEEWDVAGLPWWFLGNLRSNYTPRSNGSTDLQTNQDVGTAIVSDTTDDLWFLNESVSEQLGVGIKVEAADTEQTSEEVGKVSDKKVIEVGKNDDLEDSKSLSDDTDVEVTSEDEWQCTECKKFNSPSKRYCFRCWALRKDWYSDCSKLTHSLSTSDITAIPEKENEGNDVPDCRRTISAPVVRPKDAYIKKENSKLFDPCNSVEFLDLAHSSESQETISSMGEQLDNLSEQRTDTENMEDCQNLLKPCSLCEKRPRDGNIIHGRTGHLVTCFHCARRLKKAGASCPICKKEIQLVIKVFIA

[2] = inhibitors of intracellular T. cruzi replication, confirmation, NIH3T3 host cells, beta-gal luminescence (AID 2044); assay type: functional, cell-based;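 further: intracellular parasites grown in NIH/3T3 mouse fibroblasts as host cells; luminescent beta-galactosidase reporter signal from transgenic T. cruzi replicating inside host cells; inhibitors lower the luminescence signal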
[3] = cytotoxicity toward NIH3T3 fibroblasts, dose response, counter-screen, cell-based, ATP luminescence, mouse fibroblasts (AID 2010); assay type: functional;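 further: cells exposed to compound for about 90 hours before reading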
[4] = molecular target: T1, Ubiquitin-conjugating enzyme E2 N (Homo sapiens, UniProt P61088); assay type: functional;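 further: Dose-response confirmation in a TR-FRET assay detecting UBC13-driven polyubiquitin chain formation, inhibition measured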
T1 sequence (P61088 whole entry): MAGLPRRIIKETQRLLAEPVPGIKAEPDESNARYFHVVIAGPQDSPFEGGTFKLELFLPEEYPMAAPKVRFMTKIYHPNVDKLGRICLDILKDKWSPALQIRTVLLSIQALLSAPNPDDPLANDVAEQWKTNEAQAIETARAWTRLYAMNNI

Streptococcus = assay: Group A Streptococcus viability loss, dose response, counter-screen for streptokinase expression inhibitor project, luminescence, BacTiterGlo (AID 1915); assay type: functional, organism-based;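 further: potency for reduction of bacterial viability or growth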
cells = assay type: functional
Protein Wnt-3a = Protein Wnt-3a (Mus musculus, UniProt P27467); assay: Wnt3a-driven reporter signaling inhibition, dose response, selectivity assay for Gli-SUFU antagonist project, Wnt-LIGHT cells, luminescence (AID 651570); assay type: functional; settings: read-out: IC50_Mean;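 further: Wnt-LIGHT reporter cells stimulated with conditioned medium from Wnt3a-producing cells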
[5] = HepG2 cell cytotoxicity, dose response, cytotoxicity control for non-replicating M. tuberculosis project (AID 489018); assay type: functional; settings: Mycobacterium tuberculosis
[6] = THP-1 cell cytotoxicity, dose response, cytotoxicity control for non-replicating M. tuberculosis project (AID 489025); assay type: functional
[7] = Vero E6 cell cytotoxicity, dose response, cytotoxicity control for non-replicating M. tuberculosis project, secondary assay (AID 492998); assay type: functional, VeroE6; settings: Vero C1008
[8] = test system: Streptococcus sp. 'group A'; assay: growth inhibition of control SK(-) GAS strain, dose response, counter-screen for streptokinase expression inhibitor project, luminescence, kanamycin, BacTiterGlo, confirmation (AID 1900); assay type: functional, organism-based
[9] = molecular target: T2, Microphthalmia-associated transcription factor (Homo sapiens, UniProt O75030); assay: TRPM1 promoter luciferase signal decrease, dose response, MITF inhibitor project, cell-based, SK-MEL-5, cherry-picked, set 3 (AID 493073); assay type: functional
T2 sequence (O75030 whole entry): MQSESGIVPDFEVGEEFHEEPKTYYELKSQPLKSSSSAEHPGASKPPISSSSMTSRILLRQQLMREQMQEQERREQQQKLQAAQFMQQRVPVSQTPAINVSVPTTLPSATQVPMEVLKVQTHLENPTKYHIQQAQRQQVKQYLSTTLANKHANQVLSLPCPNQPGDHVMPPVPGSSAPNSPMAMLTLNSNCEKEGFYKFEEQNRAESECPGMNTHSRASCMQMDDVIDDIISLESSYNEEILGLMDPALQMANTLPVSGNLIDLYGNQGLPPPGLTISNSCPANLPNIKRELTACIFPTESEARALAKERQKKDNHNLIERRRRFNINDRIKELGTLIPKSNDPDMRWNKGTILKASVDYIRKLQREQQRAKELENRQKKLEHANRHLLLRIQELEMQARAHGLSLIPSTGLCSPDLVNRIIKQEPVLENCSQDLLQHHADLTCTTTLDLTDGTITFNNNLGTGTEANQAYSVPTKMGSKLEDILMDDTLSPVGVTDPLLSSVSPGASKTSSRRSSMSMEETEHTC

[10] = molecular target: G-protein coupled receptor 55 (Homo sapiens, UniProt Q9Y2T6); assay: GPR55 antagonists blocking LPI-driven arrestin recruitment, primary screen, imaging, U2OS, beta-arrestin-GFP, LPI agonist (AID 2013); assay type: functional;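 further: antagonist potency measured as reduced agonist-driven arrestin aggregation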
[11] = cytotoxicity in NIH/3T3 mouse fibroblasts, dose response, cytotoxicity control, cell-based, mouse embryonic fibroblasts, dry powder, set 2 (AID 493247); assay type: functional; settings: Fibroblast
Trypanosoma cruzi = assay: growth inhibition of intracellular Trypanosoma cruzi, dose response, cell-based, plate reader, dry powder, set 3 (AID 493197); assay type: functional
HEK293 [12] = assay: cells; assay type: functional, cell-based; settings: Homo sapiens
HEK293 [13] = assay: NOD1 signaling inhibitors, primary screen, cell-based, luminescence, uHTS (AID 1578); assay type: functional; settings: Homo sapiens
HEK293 [14] = assay: cells; assay type: functional, cell-based; settings: Homo sapiens; remark: listed apart in the source
HEK293 [15] = assay: cells; assay type: functional, cell-based; settings: Homo sapiens; remark: listed apart in the source
[16] = molecular target: Nucleotide-binding oligomerization domain-containing protein 2 (Homo sapiens, UniProt Q9HC29); assay: NOD2 signaling inhibitors, cell-based, luminescence, uHTS, HEK293 (AID 1566); assay type: functional
HEK293 [17] = assay: NOD2 signaling inhibitors in MDP-stimulated cells, cell-based, uHTS, luminescence (AID 2001); assay type: functional; settings: Homo sapiens
[18] = molecular target: T3, Type-1 angiotensin II receptor (Homo sapiens, UniProt P30556); assay: AT1 receptor agonists, dose response, selectivity assay for APJ receptor agonist project, cell-based, uHTS hits (AID 488865); assay type: functional;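 further: beta-arrestin recruitment to AT1 measured by enzyme fragment complementation luminescence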
T3 sequence (P30556 whole entry): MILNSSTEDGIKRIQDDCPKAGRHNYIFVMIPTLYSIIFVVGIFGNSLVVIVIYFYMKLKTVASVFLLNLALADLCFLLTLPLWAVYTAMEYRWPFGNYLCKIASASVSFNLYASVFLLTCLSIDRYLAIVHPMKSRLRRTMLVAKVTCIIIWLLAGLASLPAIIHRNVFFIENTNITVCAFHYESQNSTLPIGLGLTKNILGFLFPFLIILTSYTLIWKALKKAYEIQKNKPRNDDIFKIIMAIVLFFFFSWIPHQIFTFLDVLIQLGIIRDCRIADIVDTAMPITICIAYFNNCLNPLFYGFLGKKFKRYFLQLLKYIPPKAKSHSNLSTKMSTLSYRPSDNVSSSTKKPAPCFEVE

[19] = molecular target: T4, Dual specificity protein phosphatase 6 (Rattus norvegicus, UniProt Q64346); assay type: functional
T4 sequence (Q64346 whole entry): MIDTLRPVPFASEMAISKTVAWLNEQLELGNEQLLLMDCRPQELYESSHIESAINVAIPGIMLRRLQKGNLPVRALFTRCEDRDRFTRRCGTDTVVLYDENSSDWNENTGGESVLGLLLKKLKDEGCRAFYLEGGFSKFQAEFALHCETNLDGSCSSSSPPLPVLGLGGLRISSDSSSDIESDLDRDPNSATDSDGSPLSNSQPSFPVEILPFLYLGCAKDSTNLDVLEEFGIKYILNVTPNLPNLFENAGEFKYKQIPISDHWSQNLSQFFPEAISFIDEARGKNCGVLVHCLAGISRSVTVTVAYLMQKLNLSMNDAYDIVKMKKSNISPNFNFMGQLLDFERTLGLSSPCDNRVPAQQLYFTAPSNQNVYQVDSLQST

[20] = molecular target: T5, Dual specificity protein phosphatase 3 (Homo sapiens, UniProt P51452); assay: SAR VHR1 Fluorescent Assay for In Vitro dose response studies Set 2. [Related pubchem assays (depositor defined):AID1654, AID1661, AID1878]; assay type: functional
T5 sequence (P51452 whole entry): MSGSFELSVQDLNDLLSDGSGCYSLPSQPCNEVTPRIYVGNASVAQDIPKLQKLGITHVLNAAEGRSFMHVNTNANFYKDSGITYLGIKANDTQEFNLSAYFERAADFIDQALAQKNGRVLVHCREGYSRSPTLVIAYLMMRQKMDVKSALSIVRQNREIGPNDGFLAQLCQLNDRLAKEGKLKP

[21] = molecular target: T6, Tyrosine-protein phosphatase non-receptor type 7 (Homo sapiens, UniProt P35236); assay: SAR analysis of chemical inhibitors of HePTP using a Fluorescent assay - Set 2. [Related pubchem assays (depositor defined):AID1059, AID1077, AID1661, AID2085, AID521]; assay type: functional
T6 sequence (P35236 whole entry): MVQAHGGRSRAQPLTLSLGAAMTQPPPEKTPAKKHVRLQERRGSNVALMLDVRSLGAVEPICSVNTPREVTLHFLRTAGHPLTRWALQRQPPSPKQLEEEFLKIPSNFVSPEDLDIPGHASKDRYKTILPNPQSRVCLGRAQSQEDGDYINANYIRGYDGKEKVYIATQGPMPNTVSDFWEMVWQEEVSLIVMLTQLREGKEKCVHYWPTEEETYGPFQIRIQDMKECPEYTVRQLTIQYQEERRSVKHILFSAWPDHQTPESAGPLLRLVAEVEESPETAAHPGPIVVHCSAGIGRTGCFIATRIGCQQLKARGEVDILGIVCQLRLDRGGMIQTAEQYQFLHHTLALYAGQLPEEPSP

[22] = molecular target: T4, Dual specificity protein phosphatase 6; assay: SAR analysis of inhibitors of MKP-3 - Set 2. [Related pubchem assays (depositor defined):AID1055, AID1661, AID425, AID553, AID566]; assay type: functional
[23] = molecular target: T5, Dual specificity protein phosphatase 3; assay: SAR VHR1 absorbance Assay for In Vitro dose response studies. [Related pubchem assays (depositor defined):AID1654, AID1661, AID1878, AID1992, AID2004]
[24] = molecular target: T6, Tyrosine-protein phosphatase non-receptor type 7; assay: redox-dependent HePTP inhibition, mechanism study, biochemical, fluorescence (AID 2068); assay type: functional
[25] = molecular target: T5, Dual specificity protein phosphatase 3; assay: SAR VHR1 Fluorescent Assay for In Vitro dose response studies. [Related pubchem assays (depositor defined):AID1654, AID1661, AID1878, AID1992, AID2004, AID2070, AID2085]; assay type: functional
[26] = molecular target: Eukaryotic translation initiation factor 4H (Homo sapiens, UniProt Q15056); assay: eIF4H inhibition in translation initiation, SAR follow-up (AID 435011); assay type: functional
[27] = molecular target: Polyadenylate-binding protein 1 (Homo sapiens, UniProt P11940); assay: PABP inhibition in translation initiation, SAR follow-up (AID 435018); assay type: functional
Polyadenylate-binding protein 1, sequence (P11940 whole entry): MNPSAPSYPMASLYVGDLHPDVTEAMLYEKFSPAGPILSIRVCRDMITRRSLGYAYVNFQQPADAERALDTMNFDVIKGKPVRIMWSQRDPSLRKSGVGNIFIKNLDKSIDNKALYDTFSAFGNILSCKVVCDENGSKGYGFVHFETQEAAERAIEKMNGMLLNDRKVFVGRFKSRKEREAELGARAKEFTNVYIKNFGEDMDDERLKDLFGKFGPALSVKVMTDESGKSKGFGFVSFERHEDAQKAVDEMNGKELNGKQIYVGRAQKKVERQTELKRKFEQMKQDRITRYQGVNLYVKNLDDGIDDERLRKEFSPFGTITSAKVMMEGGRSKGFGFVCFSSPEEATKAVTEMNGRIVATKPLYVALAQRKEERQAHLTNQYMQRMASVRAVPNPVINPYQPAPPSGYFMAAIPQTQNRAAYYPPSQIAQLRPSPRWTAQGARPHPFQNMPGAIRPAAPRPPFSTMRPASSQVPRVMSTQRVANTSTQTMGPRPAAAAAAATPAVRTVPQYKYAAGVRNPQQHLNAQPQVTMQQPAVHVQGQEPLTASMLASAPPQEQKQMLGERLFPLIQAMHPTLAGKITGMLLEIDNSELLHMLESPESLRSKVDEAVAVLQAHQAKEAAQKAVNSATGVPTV

[28] = molecular target: Voltage-dependent T-type calcium channel subunit alpha-1H (Homo sapiens, UniProt O95180); assay: Cav3.2 T-type channel inhibitors, cell-based, synthetic library set 1, calcium flux (AID 493022); assay type: functional
Voltage-dependent T-type calcium channel subunit alpha-1H, sequence (O95180 whole entry): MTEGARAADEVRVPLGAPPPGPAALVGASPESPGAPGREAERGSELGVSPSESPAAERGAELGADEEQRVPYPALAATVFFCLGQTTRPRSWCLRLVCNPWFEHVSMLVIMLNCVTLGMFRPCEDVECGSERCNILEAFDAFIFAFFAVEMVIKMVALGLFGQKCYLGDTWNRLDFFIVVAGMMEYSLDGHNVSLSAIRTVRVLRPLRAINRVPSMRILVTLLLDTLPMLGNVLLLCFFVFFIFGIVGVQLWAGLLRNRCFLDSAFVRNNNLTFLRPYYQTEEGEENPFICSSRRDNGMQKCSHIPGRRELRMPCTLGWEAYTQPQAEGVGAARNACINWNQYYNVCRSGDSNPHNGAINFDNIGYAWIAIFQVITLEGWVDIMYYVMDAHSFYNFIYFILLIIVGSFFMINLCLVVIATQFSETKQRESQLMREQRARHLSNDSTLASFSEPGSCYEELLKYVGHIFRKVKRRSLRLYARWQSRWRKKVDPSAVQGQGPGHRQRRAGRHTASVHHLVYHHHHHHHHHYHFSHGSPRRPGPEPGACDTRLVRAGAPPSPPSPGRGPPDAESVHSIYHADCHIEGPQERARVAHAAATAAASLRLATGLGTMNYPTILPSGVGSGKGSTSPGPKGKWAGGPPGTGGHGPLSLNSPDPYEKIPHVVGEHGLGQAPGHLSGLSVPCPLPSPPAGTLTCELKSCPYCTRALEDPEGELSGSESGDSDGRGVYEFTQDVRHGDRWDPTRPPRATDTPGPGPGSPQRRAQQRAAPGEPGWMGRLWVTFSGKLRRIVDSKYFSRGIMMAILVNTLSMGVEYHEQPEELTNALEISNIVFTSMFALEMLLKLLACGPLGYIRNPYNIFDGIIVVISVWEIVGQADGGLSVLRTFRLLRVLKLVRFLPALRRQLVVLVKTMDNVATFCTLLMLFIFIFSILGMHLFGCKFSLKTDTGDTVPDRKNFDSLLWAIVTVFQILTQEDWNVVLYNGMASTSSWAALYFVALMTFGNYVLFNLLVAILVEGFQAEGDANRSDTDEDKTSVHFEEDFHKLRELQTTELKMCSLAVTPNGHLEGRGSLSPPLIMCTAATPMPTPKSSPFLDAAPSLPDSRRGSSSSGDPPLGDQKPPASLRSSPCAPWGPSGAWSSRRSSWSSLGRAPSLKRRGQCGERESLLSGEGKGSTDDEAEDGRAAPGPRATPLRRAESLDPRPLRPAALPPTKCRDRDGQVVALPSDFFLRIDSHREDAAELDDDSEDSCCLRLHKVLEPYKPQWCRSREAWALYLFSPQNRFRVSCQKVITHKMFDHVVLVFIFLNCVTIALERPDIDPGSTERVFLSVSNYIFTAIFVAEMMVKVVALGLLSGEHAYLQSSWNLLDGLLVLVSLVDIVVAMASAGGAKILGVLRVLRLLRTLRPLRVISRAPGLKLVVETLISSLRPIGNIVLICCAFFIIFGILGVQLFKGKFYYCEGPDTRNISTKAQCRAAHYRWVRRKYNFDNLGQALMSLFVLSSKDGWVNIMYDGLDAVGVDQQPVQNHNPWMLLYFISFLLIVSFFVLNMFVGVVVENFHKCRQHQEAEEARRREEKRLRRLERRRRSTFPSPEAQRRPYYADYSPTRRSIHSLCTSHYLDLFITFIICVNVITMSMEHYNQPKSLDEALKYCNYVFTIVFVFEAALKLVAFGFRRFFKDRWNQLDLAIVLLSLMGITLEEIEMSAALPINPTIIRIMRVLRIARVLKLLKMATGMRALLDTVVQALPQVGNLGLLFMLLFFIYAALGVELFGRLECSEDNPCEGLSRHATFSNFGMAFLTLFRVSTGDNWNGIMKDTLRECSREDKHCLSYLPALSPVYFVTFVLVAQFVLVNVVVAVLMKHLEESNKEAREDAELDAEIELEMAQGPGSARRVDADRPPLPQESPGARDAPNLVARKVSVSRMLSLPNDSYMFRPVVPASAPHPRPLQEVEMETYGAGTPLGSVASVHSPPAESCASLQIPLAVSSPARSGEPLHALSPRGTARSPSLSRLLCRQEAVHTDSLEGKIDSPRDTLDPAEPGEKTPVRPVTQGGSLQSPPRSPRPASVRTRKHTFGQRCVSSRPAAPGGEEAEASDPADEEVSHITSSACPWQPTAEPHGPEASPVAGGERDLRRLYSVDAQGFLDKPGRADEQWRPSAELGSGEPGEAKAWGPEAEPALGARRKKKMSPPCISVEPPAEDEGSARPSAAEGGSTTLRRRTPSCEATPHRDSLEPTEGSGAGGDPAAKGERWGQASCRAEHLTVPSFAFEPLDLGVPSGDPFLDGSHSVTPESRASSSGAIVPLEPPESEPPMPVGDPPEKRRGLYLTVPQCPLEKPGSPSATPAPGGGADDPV

[29] = molecular target: T7, Alkaline phosphatase, tissue-nonspecific isozyme (Homo sapiens, UniProt P05186); assay: SAR assay for compounds inhibiting TNAP in the absence of phosphate acceptor performed in a luminescent assay. [Related pubchem assays (depositor defined):AID1548, AID1659, AID518]
T7 sequence (P05186 whole entry): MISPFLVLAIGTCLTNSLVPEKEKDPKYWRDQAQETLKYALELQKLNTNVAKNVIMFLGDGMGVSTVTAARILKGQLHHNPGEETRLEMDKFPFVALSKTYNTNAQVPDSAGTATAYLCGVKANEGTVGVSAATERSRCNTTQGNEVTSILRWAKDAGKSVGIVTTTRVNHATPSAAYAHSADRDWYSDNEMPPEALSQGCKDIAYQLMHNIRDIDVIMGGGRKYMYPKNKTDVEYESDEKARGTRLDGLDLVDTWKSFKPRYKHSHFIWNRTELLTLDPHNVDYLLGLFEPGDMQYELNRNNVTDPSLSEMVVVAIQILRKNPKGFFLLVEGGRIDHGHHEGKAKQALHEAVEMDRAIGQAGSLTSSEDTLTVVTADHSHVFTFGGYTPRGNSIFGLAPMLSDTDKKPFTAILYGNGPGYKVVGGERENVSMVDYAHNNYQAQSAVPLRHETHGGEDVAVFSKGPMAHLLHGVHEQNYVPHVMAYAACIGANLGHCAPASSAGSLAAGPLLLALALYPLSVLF

[30] = molecular target: T7, Alkaline phosphatase, tissue-nonspecific isozyme; assay: human TNAP enzyme inhibitors, SAR follow-up, biochemical, luminescent, dose response (AID 1056)
[31] = molecular target: Alkaline phosphatase, placental type (Homo sapiens, UniProt P05187); assay: PLAP enzyme inhibitors, confirmation, biochemical, luminescence (AID 1512); assay type: functional
[32] = molecular target: Glyceraldehyde-3-phosphate dehydrogenase (Homo sapiens, UniProt P04406)
Glyceraldehyde-3-phosphate dehydrogenase, sequence (P04406 whole entry): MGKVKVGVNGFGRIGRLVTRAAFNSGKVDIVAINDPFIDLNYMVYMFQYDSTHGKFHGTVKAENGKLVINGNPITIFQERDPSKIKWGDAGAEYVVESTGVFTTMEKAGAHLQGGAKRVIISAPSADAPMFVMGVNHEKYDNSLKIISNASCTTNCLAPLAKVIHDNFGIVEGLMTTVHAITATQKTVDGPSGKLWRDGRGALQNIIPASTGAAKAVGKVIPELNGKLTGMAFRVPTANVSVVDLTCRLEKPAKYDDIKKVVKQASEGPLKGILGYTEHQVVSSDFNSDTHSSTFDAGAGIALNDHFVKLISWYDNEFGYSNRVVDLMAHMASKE

## COc1ccc(-c2cc3c(=O)n(CC(=O)NCCCN4CCC(N5CCCCC5)CC4)nc(C)n3n2)cc1
[1]
  IC50: 9.38 µM (active)
[2]
  EC50: 3.09 µM (active)
[3]
  EC50: > 60 µM (not active)
[4]
  IC50: > 20 µM (inactive)

## CCCCCCn1c(=O)c(C(=O)Nc2cnccn2)c(O)c2ccccc21
Streptococcus
  EC50: 13 µM (active)
cells
  IC50: 5.03 µM (active)
Protein Wnt-3a
  IC50: 3.55 µM (active)
[5]
  CC50: 10.2 µM (active)
[6]
  CC50: 3.51 µM (active)
[7]
  CC50: 7.38 µM (active)
[8]
  EC50: 3 µM (active)
[9]
  AC50: 3.68 µM (active)

## Cc1ccccc1CSCCNC(=O)c1ccc(N(C)S(=O)(=O)c2ccccc2)cc1
[10]
  IC50: 3 µM (active)

## COc1ccc(CN2CCCC(C(=O)N3CCc4ccccc4C3)C2)cc1OC (stereo not drawn)
[11]
  AC50: 41.7 µM (active)
Trypanosoma cruzi
  AC50: 3.54 µM (active)

## C=CCn1c(O)c(N=NC(=S)Nc2cccc(OC)c2)c2ccccc21
[2]
  EC50: 0.589 µM (active)
HEK293 [12]
  IC50: 3.41 µM (active)
HEK293 [13]
  EC50: > 20 µM (inactive)
[3]
  EC50: 4.49 µM (active)
HEK293 [14]
  IC50: > 20 µM (inactive)
HEK293 [15]
  IC50: > 20 µM (inactive)
[16]
  EC50: > 20 µM (inactive)
HEK293 [17]
  IC50: 1.76 µM (active)

## COc1cc2c(cc1NC(=O)c1cc(-c3ccncc3)nc3ccc(C)cc13)oc1ccccc12
[18]
  EC50: > 100 µM (inactive)

## CCOc1ccc(-n2c(N)c(C(=O)N3CCN(C)CC3)sc2=S)cc1
[19]
  IC50: > 99 µM (inactive)
[20]
  IC50: > 100 µM (inactive)
[21]
  IC50: > 100 µM (inactive)
[22]
  IC50: > 100 µM (inactive)
[23]
  IC50: > 100 µM (inactive)
[24]
  IC50: > 100 µM (inactive)
[25]
  IC50: > 99 µM (inactive)

## O=C(Nc1ccccc1)C1CCN(C(=O)c2cccs2)CC1
[26]
  IC50: 21.4 µM (active)
[27]
  IC50: 7.49 µM (active)

## Cc1ccc(-c2nnc(NC(=O)C(C)(C)Oc3ccccc3)o2)cc1C
[28]
  EC50: 2.1 µM (active)

## COc1ccc(C)cc1S(=O)(=O)Nc1cccnc1
[29]
  IC50: 16.6 µM (active) and 16.4 µM (active)
[30]
  IC50: 2.34 µM (active) and 1.6 µM (active)
[31]
  IC50: > 100 µM (inactive)
[32]
  IC50: > 100 µM (not active)
